Here are results for four compounds from patent US20120130150A1, “APPARATUS AND METHOD OF TREATMENT UTILIZING A VARYING ELECTROMAGNETIC ENERGIZATION PROFILE” (International Scientific Pty Ltd., priority 2009, published 2012).

Counter-ions that a name gives are not always drawn.

Holding throughout (format): in vitro ADME
A short description of data set [1]: Franz-type diffusion of naltrexone through human epidermis, Dermaportation vs passive. The note with it: for flux0-2h (skin penetration): 0.5% w/v in PBS pH 7.4. As for the experimental part: (§1) Human skin was obtained following abdominoplasty surgery under existing approval from the Human Research Ethics Committee of Curtin University.
(§2) The epidermis was heat separated from the dermis using standard procedures (Kligman and Christophers 1963). The epidermis was mounted in Franz-type diffusion cells with the stratum corneum facing the donor compartment. Skin integrity was determined by conductance measurement. The receptor compartment was filled with phosphate buffered saline pH 7.4, stirred continuously and maintained at 37° C. throughout the experiment. Naltrexone (0.5% w/v) in phosphate buffered saline (pH 7.4) was applied to the donor side of the epidermis.
Dermaportation was applied from time 0 to 4 h. Samples were removed from the receptor fluid at time points up to 8 h. At each time point the receptor fluid volume was replaced with fresh receptor solution preheated to 37° C. Four Dermaportation cells and 4 passive cells (no Dermaportation) were conducted using skin from the abdominal region of a donor. The content of naltrexone in receptor fluid samples was analysed by HPLC with ultraviolet detection using a validated assay procedure.
The cumulative amount of naltrexone in receptor versus time was plotted and flux values calculated from the slopes per group.

A short description of data set [2]: Franz-type diffusion of 5-aminolevulinic acid through human epidermis. The note with it: at 4 h; 2% w/v solution in PBS pH 7.4; with Dermaportation only (0-4 h). On the procedure:
Overview: ALA solution was applied to the surface of human epidermis for a contact period of up to 4 h. Dermaportation applied continuously from 0 to 4 h was compared to passive diffusion. ALA penetrating the epidermis would diffuse into a receptor fluid of phosphate buffered saline (pH 7.4: PBS). The receptor fluid was analysed for ALA content by high performance liquid chromatography (HPLC).
In vitro epidermal penetration: Human skin was obtained following abdominoplasty surgery under existing approval from the Human Research Ethics Committee of Curtin University. Skin from a donor was used in this study. The epidermis was heat separated from the dermis using standard procedures (Kligman and Christophers 1963). The epidermis was mounted in Franz-type diffusion cells with the stratum corneum facing the donor compartment. Skin integrity was determined by conductance measurement.
The receptor compartment was filled with phosphate buffered saline pH 7.4, stirred continuously and maintained at 37° C. throughout the experiment. ALA solution (2% w/v of ALA in phosphate buffered saline pH 7.4) was applied to the donor side of the epidermis. Dermaportation (cycle 2) was applied from time 0 to 4 h. […] The content of ALA in receptor fluid samples was analysed by HPLC with ultraviolet detection using a validated assay procedure. […]

A short description of data set [3]: Franz-type diffusion of hydrocortisone through human epidermis, Dermaportation vs passive. The settings on record: for flux (skin penetration): saturated solution in 20:80 ethanol:PBS pH 7.4; for cumulative amount penetrated: at 30 min. As for the experimental part: as §1
as §2, with “20:80 ethanol:phosphate” for “phosphate”, “Hydrocortisone solution (1 mL of saturated solution” for “Naltrexone (0.5% w/v)”, “pH 7.4; solubility approx 1 mg/mL)” for “(pH 7.4)”
Dermaportation was applied from time 0 to 4 h. Samples were removed from the receptor fluid at time points up to 4 h. At each time point the receptor fluid volume was replaced with fresh receptor solution preheated to 37° C. Four Dermaportation cells and three passive cells (no Dermaportation) were conducted using skin from the abdominal region of a donor. The content of hydrocortisone in receptor fluid samples was analysed by HPLC with ultraviolet detection using a validated assay procedure.
The cumulative amount of hydrocortisone in receptor versus time was plotted and flux values calculated from the slopes per group.

The nature of data set [4]: Franz-type diffusion of Voltaren Emulgel diclofenac through human epidermis, Dermaportation vs passive. The note with it: for flux (skin penetration): PBS receptor, 37° C.; for cumulative amount penetrated: at 8 h. As for the experimental part: Human epidermis was mounted in vertical Franz type diffusion cells (stratum corneum facing up), according to the method of Kligman and Christophers (1963). Voltaren Emulgel® (1 g containing 1.16% diclofenac diethylammonium salt; Novartis) was applied to the donor compartment of diffusion cells, with PBS in the receptor compartment (3.0 mL; stirred continuously; 37° C.). Dermaportation coils were placed around the exterior of 4 cells, with 4 additional cells without coils (passive control). Dermaportation energy was applied from time 30-60 min. Samples of the receptor solution were removed and replaced with fresh buffer over an 8 h period. All samples were analysed for diclofenac content by HPLC with UV detection by a validated method. The cumulative amount of diclofenac in receptor versus time was plotted and flux values calculated from the slopes per group. Statistical analyses used a t-test on the delta scores from the zero time point to the time point in question.

Take `O=C1CC[C@@]2(O)[C@H]3Cc4ccc(O)c5c4[C@@]2(CCN3CC2CC2)[C@H]1O5` [naltrexone, Naltrexone]: the figures for the “flux0-2h (skin penetration)” value in data set [1] (Dermaportation 0-4 h) and in data set [1] (passive administration) were 152.6 μg/cm^2/h and 1.6 μg/cm^2/h, respectively. The “diffusion with Dermaportation compared with passive administration” value in data set [1] (Dermaportation for 240 min, Time by Treat interaction p<0.05) is “diffused faster and in more quantity”.

In the case of `NCC(=O)CCC(=O)O` [ALA, 5-aminolevulinic acid], in data set [2], the “applied dose penetrated to the receptor” value is on record as “approximately 40%”.

Consider `C[C@]12CCC(=O)C=C1CC[C@@H]1[C@@H]2[C@@H](O)C[C@@]2(C)[C@H]1CC[C@]2(O)C(=O)CO` [hydrocortisone, Hydrocortisone], for which the “flux (skin penetration)” value is listed as 2.44 μg/cm^2/h in data set [3] (Dermaportation 0-4 h) and 0.08 μg/cm^2/h in data set [3] (passive administration). The values for the cumulative amount penetrated in data set [3] (Dermaportation) and in data set [3] (passive diffusion) were 93.22 µg and 2.51 µg, respectively.

On to `O=C(O)Cc1ccccc1Nc1c(Cl)cccc1Cl` [diclofenac, diclofenac diethylammonium salt], for which the “flux (skin penetration)” value in data set [4] (Dermaportation applied 30-60 min, Voltaren Emulgel 1 g (1.16% diclofenac diethylammonium salt)) came out at 2.97 µg/h; in data set [4] (passive administration, Voltaren Emulgel 1 g) it was 1.58 µg/h. Besides, the cumulative amount penetrated in data set [4] (Dermaportation applied 30-60 min) was determined as 14.25 µg; in data set [4] (passive diffusion), 7.59 µg. Also, in data set [4] (passive diffusion, any time point up to 8 h), the “diffusion level versus zero time point (t-test delta score)” value is on record as “did not reach diffusion levels different from 0”.
